Measured values: US9089499B2, “Para-coumaric acid or para-hydroxycinnamic acid derivatives and their use in cosmetic or dermatological compositions” (BASF Beauty Care Solutions France S.A.S., priority 2005, dated 2015)

Assays:
[1] = Antiradical activity, acellular DPPH model; details: DPPH 30 minutes, absorbance 520 nm
Protocol: The antiradical activity of the derivatives derived from the syntheses described above was evaluated in an in vitro acellular model using DPPH.
1,1-Diphenyl 2-picryihydrazyl, on account of its paramagnetic structure, can accept an electron or a hydrogen radical to become a stable diamagnetic molecule. This free radical, which is purple coloured in ethanol, has a strong absorption band at 520 nm.
The addition of a compound that provides electrons results in a decolorization of the 1,1-diphenyl 2-picrylhydrazyl that is proportional to the number of electrons taken up by the radical, which may be monitored by measuring the absorbance at 520 nm.
DPPH is incubated for 30 minutes in the presence of the derivatives described above, tested at a concentration of 10^−5M, or alone for the control. At the end of the incubation, the antiradical activity of the above derivatives is evaluated by measuring the absorbance of the solution at 520 nm.
The antiradical activity of each test product is calculated according to the formula, as a percentage: 100−((OD520 in the presence of the test compound/OD520 in the absence of compound)×100)

in vivo = details: both, rat, po
Protocol: (§1) The toxicology tests were performed on the compound obtained according to Example 1 incorporated at 10% into a 0.5% xanthan gel, by ocular evaluation on rabbits, by studying the absence of abnormal toxicity via single oral administration to rats, and by studying the sensitizing power on guinea pigs.
(§2) The preparations described were administered in a single portion orally at a dose of 2 g/kg of body weight, to 5 male rats and 5 female rats according to a protocol inspired by the OCDE Directive No. 401 of 24 February 1987 and adapted to cosmetic products.

rats = test: in vivo; details: both, rat, po
Protocol: as §1, §2

guinea pigs = test: Skin sensitization potential in guinea pigs (Magnusson and Kligmann maximization test); assay type: in vivo; details: 10% in a 0.5% xanthan gel
Description: The preparations described are subjected to the maximization test described by Magnusson and Kligmann, which protocol is in accordance with the OCDE guideline No. 406.

SMILES: COc1cc(/C=C/C(=O)NCCc2ccc(O)c(O)c2)ccc1O [Example 1, N-trans-feruloyldopamine]
- Antiradical activity, Mean 10^−5 M [1]: 60.01%
- LD50 (in vivo): > 2000 mg/kg
- LD0 (rats): greater than 2000 mg/kg
- Skin sensitization classification (guinea pigs): not sensitizing on contact with the skin
